In paper PMC11208427, “Magnesium enhances aurintricarboxylic acid’s inhibitory action on the plasma membrane Ca^2+-ATPase” (Scientific Reports, 2024):

Biological target: T1, plasma membrane Ca2+-ATPase (PMCA), 90% PMCA4b (Homo sapiens, UniProt P23634)
T1 construct: gene ATP2B4
Test: fluorescence of ATA bound to purified PMCA and quenching of intrinsic Trp fluorescence; also Ca2+-ATPase inhibition (Ki […])
Type: binding

T1 sequence (P23634 1-1205 isoform P23634-6): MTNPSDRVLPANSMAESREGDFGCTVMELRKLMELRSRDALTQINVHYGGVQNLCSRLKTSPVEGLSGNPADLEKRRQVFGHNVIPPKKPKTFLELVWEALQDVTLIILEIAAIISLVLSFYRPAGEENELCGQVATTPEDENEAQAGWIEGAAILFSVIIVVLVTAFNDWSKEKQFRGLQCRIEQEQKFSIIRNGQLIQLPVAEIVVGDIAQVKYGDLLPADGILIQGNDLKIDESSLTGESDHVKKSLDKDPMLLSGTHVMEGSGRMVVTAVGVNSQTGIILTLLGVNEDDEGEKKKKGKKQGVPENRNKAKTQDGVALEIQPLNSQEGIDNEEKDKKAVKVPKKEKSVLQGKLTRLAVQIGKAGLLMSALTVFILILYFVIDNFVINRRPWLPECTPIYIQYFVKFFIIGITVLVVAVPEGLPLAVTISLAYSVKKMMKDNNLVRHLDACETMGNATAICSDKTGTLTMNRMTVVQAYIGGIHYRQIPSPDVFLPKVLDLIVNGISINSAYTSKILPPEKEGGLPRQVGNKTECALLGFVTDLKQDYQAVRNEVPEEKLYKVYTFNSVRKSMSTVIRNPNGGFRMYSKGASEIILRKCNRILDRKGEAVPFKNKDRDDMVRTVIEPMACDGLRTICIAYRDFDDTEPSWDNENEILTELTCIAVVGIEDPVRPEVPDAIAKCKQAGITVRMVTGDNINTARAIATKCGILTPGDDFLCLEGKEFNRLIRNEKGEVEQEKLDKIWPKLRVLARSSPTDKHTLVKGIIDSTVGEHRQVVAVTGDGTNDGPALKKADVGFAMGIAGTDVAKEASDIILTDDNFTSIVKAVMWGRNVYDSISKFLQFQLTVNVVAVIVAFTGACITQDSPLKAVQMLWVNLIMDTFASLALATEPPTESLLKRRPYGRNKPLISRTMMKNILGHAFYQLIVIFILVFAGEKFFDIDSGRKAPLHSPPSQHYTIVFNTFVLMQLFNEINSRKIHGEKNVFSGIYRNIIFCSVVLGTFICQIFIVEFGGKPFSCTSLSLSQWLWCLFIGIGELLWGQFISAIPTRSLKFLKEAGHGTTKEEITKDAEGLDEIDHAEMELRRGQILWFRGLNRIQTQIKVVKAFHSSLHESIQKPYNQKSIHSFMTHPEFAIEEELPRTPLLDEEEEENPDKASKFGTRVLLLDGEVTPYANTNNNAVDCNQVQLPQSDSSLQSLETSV

**Q.** Which Kd does the source give for `O=C(O)C1=CC(=C(c2ccc(O)c(C(=O)O)c2)c2ccc(O)c(C(=O)O)c2)C=CC1=O` [ATA, aurintricarboxylic acid] here?
**A.** The Kd was 160 nM.
